According to US7396837B2, “Antitumoral analogs of lamellarins” (Pharma Mar, S.A.U., priority 2002, dated 2008):
Where two headings read alike, the source gives them in different places.

How the values were obtained:
Type in all cases: cell-based
K-562 = assay: SRB colorimetric cell growth inhibition assay, K-562; conditions: for GI50: GI=growth inhibition, read-out: GI50 K-562; for CC50: cell killing (cytotoxic effect); for IC (TGI): total growth inhibition (cytostatic effect), read-out: TGI K-562
Outline: (§1)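 Sulforhodamine B colorimetric readout measured cell growth and viability after continuous compound exposure of human cancer cell lines in 96-well plates. Triplicate wells gave mean ± SD, from which growth inhibition (GI), cytostatic total growth inhibition (TGI) and cytotoxic cell killing (LC) were calculated.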

A-549 = assay: SRB colorimetric cell growth inhibition assay, A-549; conditions: for GI50: GI=growth inhibition, read-out: GI50 A-549; for CC50: cell killing (cytotoxic effect); for IC (TGI): total growth inhibition (cytostatic effect), read-out: TGI A-549
Outline: as §1

SK-MEL-28 = assay: SRB colorimetric cell growth inhibition assay, SK-MEL-28; conditions: for GI50: GI=growth inhibition, read-out: GI50 MEL-28; for IC (TGI): total growth inhibition (cytostatic effect), read-out: TGI MEL-28
Outline: as §1

HT-29 = assay: SRB colorimetric cell growth inhibition assay, HT-29; conditions: for GI50: GI=growth inhibition, read-out: GI50 HT-29; for CC50: cell killing (cytotoxic effect); for IC (TGI): total growth inhibition (cytostatic effect), read-out: TGI HT-29
Outline: as §1

LoVo = assay: SRB colorimetric cell growth inhibition assay, LoVo; conditions: for GI50: GI=growth inhibition, read-out: GI50 LOVO; for CC50: cell killing (cytotoxic effect); for IC (TGI): total growth inhibition (cytostatic effect), read-out: TGI LOVO
Outline: as §1

LoVo-Dox = assay: SRB colorimetric cell growth inhibition assay, LoVo-Dox (MDR); conditions: for GI50: GI=growth inhibition, read-out: GI50 LOVO-DOX; for CC50: cell killing (cytotoxic effect); for IC (TGI): total growth inhibition (cytostatic effect), read-out: TGI LOVO-DOX
Outline: as §1

DU-145 = assay: SRB colorimetric cell growth inhibition assay, DU-145; conditions: for GI50: GI=growth inhibition, read-out: GI50 DU-145
Outline: as §1

LNCaP = assay: SRB colorimetric cell growth inhibition assay, LNCaP; conditions: for GI50: GI=growth inhibition, read-out: GI50 LN-caP
Outline: as §1

SK-BR-3 = assay: SRB colorimetric cell growth inhibition assay, SK-BR-3; conditions: for GI50: GI=growth inhibition, read-out: GI50 SK-BR-3
Outline: as §1

IGROV = assay: SRB colorimetric cell growth inhibition assay, IGROV; conditions: for GI50: GI=growth inhibition, read-out: GI50 IGROV
Outline: as §1

IGROV-ET = assay: SRB colorimetric cell growth inhibition assay, IGROV-ET (ET-743 resistant); conditions: for GI50: GI=growth inhibition, read-out: GI50 IGROV-ET
Outline: as §1

HeLa = assay: SRB colorimetric cell growth inhibition assay, HeLa; conditions: Homo sapiens, HeLa; for GI50: GI=growth inhibition, read-out: GI50 HELA; for CC50: cell killing (cytotoxic effect); for IC (TGI): read-out: TGI HELA
Outline: as §1

HeLa-APL = assay: SRB colorimetric cell growth inhibition assay, HeLa-APL (aplidine resistant); conditions: Homo sapiens; for GI50: read-out: GI50 HELA-APL; for CC50: cell killing (cytotoxic effect); for IC (TGI): read-out: TGI HELA-APL
Outline: as §1

PANC-1 = assay: SRB colorimetric cell growth inhibition assay, PANC-1; conditions: for GI50: GI=growth inhibition, read-out: GI50 PANC-1; for CC50: cell killing (cytotoxic effect); for IC (TGI): total growth inhibition (cytostatic effect), read-out: TGI PANC-1
Outline: as §1

[1] = Homo sapiens, SK-MEL-28, MEL-28

COc1cc2c(cc1O)CCn1c-2c(Br)c2c3cc(OC)c(O)cc3oc(=O)c21 [Compound 188]
GI50 (K-562; Homo sapiens, K562, K-562): 0.908 µM | CC50 (K-562; Homo sapiens, K562, K-562, read-out: LC50 K-562): 21.8 µM | IC (TGI) (K-562; Homo sapiens, K562, K-562): 4.02 µM | GI50 (A-549; Homo sapiens, A549, A-549): 10.8 µM | CC50 (A-549; Homo sapiens, A549, A-549, read-out: LC50 A-549): 21.8 µM | IC (TGI) (A-549; Homo sapiens, A549, A-549): 21.8 µM | GI50 (SK-MEL-28; [1]): 1.14 µM | CC50 (SK-MEL-28; Homo sapiens, SK-MEL-28, MEL-28, cell killing (cytotoxic effect), read-out: LC50 MEL-28): 21.8 µM | IC (TGI) (SK-MEL-28; [1]): 21.8 µM | GI50 (HT-29; Homo sapiens, HT-29, HT-29): 21.8 µM | CC50 (HT-29; Homo sapiens, HT-29, HT-29, read-out: LC50 HT-29): 21.8 µM | IC (TGI) (HT-29; Homo sapiens, HT-29, HT-29): 21.8 µM | GI50 (LoVo; Homo sapiens, LoVo): 4.5 µM | CC50 (LoVo; Homo sapiens, LoVo, read-out: LC50 LOVO): 21.8 µM | IC (TGI) (LoVo; Homo sapiens, LoVo): 21.8 µM | GI50 (LoVo-Dox; Homo sapiens, LOVO-DOX): 1.3 µM | CC50 (LoVo-Dox; Homo sapiens, LOVO-DOX, read-out: LC50 LOVO-DOX): 21.8 µM | IC (TGI) (LoVo-Dox; Homo sapiens, LOVO-DOX): 21.8 µM | GI50 (DU-145; Homo sapiens, DU-145, DU-145): 3.19 µM | CC50 (DU-145; Homo sapiens, DU-145, DU-145, cell killing (cytotoxic effect), read-out: LC50 DU-145): 21.8 µM | IC (TGI) (DU-145; Homo sapiens, DU-145, DU-145, total growth inhibition (cytostatic effect), read-out: TGI DU-145): 21.8 µM | GI50 (LNCaP; Homo sapiens, LNCaP, LN-caP): 3.3 µM | CC50 (LNCaP; Homo sapiens, LNCaP, LN-caP, cell killing (cytotoxic effect), read-out: LC50 LN-caP): 21.8 µM | IC (TGI) (LNCaP; Homo sapiens, LNCaP, LN-caP, total growth inhibition (cytostatic effect), read-out: TGI LN-caP): 21.8 µM | GI50 (SK-BR-3; Homo sapiens, SK-BR-3, SK-BR-3): 3.6 µM | CC50 (SK-BR-3; Homo sapiens, SK-BR-3, SK-BR-3, cell killing (cytotoxic effect), read-out: LC50 SK-BR-3): 21.8 µM | IC (TGI) (SK-BR-3; Homo sapiens, SK-BR-3, SK-BR-3, total growth inhibition (cytostatic effect), read-out: TGI SK-BR-3): 11.5 µM | GI50 (IGROV; Homo sapiens, IGROV): 5.37 µM | CC50 (IGROV; Homo sapiens, IGROV, cell killing (cytotoxic effect), read-out: LC50 IGROV): 21.8 µM | IC (TGI) (IGROV; Homo sapiens, IGROV, total growth inhibition (cytostatic effect), read-out: TGI IGROV): 20.2 µM | GI50 (IGROV-ET; Homo sapiens, IGROV-ET): 2.51 µM | CC50 (IGROV-ET; Homo sapiens, IGROV-ET, cell killing (cytotoxic effect), read-out: LC50 IGROV-ET): 21.8 µM | IC (TGI) (IGROV-ET; Homo sapiens, IGROV-ET, total growth inhibition (cytostatic effect), read-out: TGI IGROV-ET): 13.4 µM | GI50 (HeLa): 1.05 µM | CC50 (HeLa; read-out: LC50 HELA): 21.8 µM | IC (TGI) (HeLa; total growth inhibition (cytostatic effect)): 3.69 µM | GI50 (HeLa-APL; HELA-APL, GI=growth inhibition): 0.984 µM | CC50 (HeLa-APL; HELA-APL, read-out: LC50 HELA-APL): 15.8 µM | IC (TGI) (HeLa-APL; HELA-APL, total growth inhibition (cytostatic effect)): 31.6 µM | GI50 (PANC-1; Homo sapiens, PANC-1, PANC-1): 5.56 µM | CC50 (PANC-1; Homo sapiens, PANC-1, PANC-1, read-out: LC50 PANC-1): 21.8 µM | IC (TGI) (PANC-1; Homo sapiens, PANC-1, PANC-1): 21.8 µM

COc1cc(-c2c3c4cc(OC)c(OC(=O)[C@@H](N)C(C)C)cc4oc(=O)c3n3ccc4c(OC(=O)[C@@H](N)C(C)C)c(OC)c(OC)cc4c23)ccc1OC(=O)[C@@H](N)C(C)C [Compound 190]
IC (TGI) (K-562; Homo sapiens, K562, K-562): 7.12 µM | CC50 (K-562; Homo sapiens, K562, read-out: LC50 K-562, K-562): 10.7 µM | GI50 (K-562; K-562): 0.0718 µM | GI50 (A-549; A-549): 0.167 µM | IC (TGI) (A-549; Homo sapiens, A549, A-549): 1.66 µM | CC50 (A-549; Homo sapiens, A549, read-out: LC50 A-549, A-549): 10.7 µM | IC (TGI) (SK-MEL-28; [1]): 10.7 µM | GI50 (SK-MEL-28; MEL-28): 9.15 µM | CC50 (SK-MEL-28; human): 10.7 µM | GI50 (HT-29; HT-29): 2.99 µM | CC50 (HT-29; Homo sapiens, HT-29, read-out: LC50 HT-29, HT-29): 10.7 µM | IC (TGI) (HT-29; Homo sapiens, HT-29): 10.7 µM | CC50 (LoVo; Homo sapiens, LoVo, read-out: LC50 LOVO, LOVO): 5.46 µM | IC (TGI) (LoVo; Homo sapiens, LoVo): 1.2 µM | GI50 (LoVo; LOVO): 0.285 µM | IC (TGI) (LoVo-Dox; Homo sapiens, LOVO-DOX): 1.37 µM | CC50 (LoVo-Dox; Homo sapiens, read-out: LC50 LOVO-DOX, LOVO-DOX): 7.68 µM | GI50 (LoVo-Dox; LOVO-DOX): 0.31 µM | GI50 (DU-145; DU-145): 0.0575 µM | TGI DU-145 (DU-145; DU-145, total growth inhibition (cytostatic effect)): 2.63E−07 Molar | CC50 (DU-145; human): 10.7 µM | GI50 (LNCaP; LN-caP): 0.0486 µM | TGI LN-caP (LNCaP; LN-caP, total growth inhibition (cytostatic effect)): 2.97E−07 Molar | CC50 (LNCaP; human): 1.97 µM | GI50 (SK-BR-3; SK-BR-3): 0.0922 µM | TGI SK-BR-3 (SK-BR-3; SK-BR-3, total growth inhibition (cytostatic effect)): 3.83E−07 Molar | CC50 (SK-BR-3; human): 2.63 µM | GI50 (IGROV; IGROV): 0.134 µM | TGI IGROV (IGROV; IGROV, total growth inhibition (cytostatic effect)): 8.95E−07 Molar | CC50 (IGROV; human): 8.32 µM | GI50 (IGROV-ET; IGROV-ET): 0.102 µM | TGI IGROV-ET (IGROV-ET; IGROV-ET, total growth inhibition (cytostatic effect)): 1.20E−06 Molar | CC50 (IGROV-ET; human): 6.42 µM | CC50 (HeLa; read-out: LC50 HELA, HELA): 3.93 µM | IC (TGI) (HeLa): 1.31 µM | GI50 (HeLa): 0.0833 µM | GI50 (HeLa-APL): 0.0899 µM | CC50 (HeLa-APL; read-out: LC50 HELA-APL, HELA-APL): 5.2 µM | IC (TGI) (HeLa-APL): 1.72 µM | IC (TGI) (PANC-1; Homo sapiens, PANC-1, PANC-1): 3.5 µM | CC50 (PANC-1; Homo sapiens, PANC-1, read-out: LC50 PANC-1, PANC-1): 10.7 µM | GI50 (PANC-1; PANC-1): 0.376 µM
